In publication PMC6107785, “Thiodipeptides targeting the intestinal oligopeptide transporter as a general approach to improving oral drug delivery” (European Journal of Medicinal Chemistry, 2018):
Structures can show the parent of a compound that is named as a salt. Where two headings read alike, the source gives them in different places. Values belong to the molecule of their own block, whether it stands above or below them. Peptide text beside a SMILES is read from it.

Columns and labels:
[1] = molecular target: T1, rabbit PepT1 (Oryctolagus cuniculus, UniProt P36836); experiment: Inhibition of radiolabelled D-Phe-L-Gln uptake in Xenopus laevis oocytes expressing rabbit PepT1 (binding affinity); conditions: oocytes expressing rabbit PepT1, pH 5.5 assay buffer
T1 construct: expressed in transfected cells; host or cells: Xenopus laevis oocytes
T1 sequence (P36836 1-707): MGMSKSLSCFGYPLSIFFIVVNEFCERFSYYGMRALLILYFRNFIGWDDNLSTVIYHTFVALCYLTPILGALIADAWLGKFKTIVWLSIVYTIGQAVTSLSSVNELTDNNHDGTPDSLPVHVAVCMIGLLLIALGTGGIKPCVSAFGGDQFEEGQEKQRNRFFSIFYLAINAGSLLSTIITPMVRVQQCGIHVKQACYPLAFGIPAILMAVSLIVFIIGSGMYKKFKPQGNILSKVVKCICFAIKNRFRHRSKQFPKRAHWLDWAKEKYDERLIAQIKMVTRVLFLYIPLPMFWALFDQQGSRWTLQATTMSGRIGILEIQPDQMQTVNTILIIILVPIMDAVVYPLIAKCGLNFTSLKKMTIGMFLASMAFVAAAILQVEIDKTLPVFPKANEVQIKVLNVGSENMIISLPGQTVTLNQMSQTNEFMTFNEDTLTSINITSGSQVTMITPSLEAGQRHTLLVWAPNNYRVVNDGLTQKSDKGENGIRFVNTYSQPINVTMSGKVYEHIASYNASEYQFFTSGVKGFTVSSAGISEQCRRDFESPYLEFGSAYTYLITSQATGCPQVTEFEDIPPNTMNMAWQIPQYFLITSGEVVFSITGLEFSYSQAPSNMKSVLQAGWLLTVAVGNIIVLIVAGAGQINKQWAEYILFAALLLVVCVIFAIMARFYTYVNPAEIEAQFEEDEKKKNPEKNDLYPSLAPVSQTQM
Description: (§1) The Ki, trans-stimulation efflux and Caco-2 assays were performed as described previously.

[2] = Stability in rat liver homogenate; format: in vitro ADME; conditions: 37 °C; for half-life at 0.5 mM: male, rat, rat liver homogenate, pH 7.5, 0.5 mM compound, read-out: Rat liver homgenate t1/2 (converted)
Description: Fresh rat liver homogenate was prepared by isolating liver from euthanized male rats, according to approved Home Office procedures. The liver was chopped with scissors and rinsed with medium (0.25 M sucrose, 25 mM KCl, 5 mM MgCl2 and 50 mM Tris/HCl, pH7.5) to remove trapped blood. The liver was then homogenized in fresh medium with a loose-fitting dounce-type homogenizer and kept on ice. Liver homogenate was incubated with either 0.5 mM compound 1 or 3, or L-Trp-L-Ala as a positive control, at 37 °C. 250 μl aliquots of the homogenate were taken at 0, 0.25, 0.5, 1, 2, 6 and 24 h. The samples were precipitated by addition an equal volume of 3% perchloric acid and centrifugation at 17000g for 5 min. The perchloric acid was neutralized with 250 μl of 1 M KOH, and the sample subjected to a freeze/thaw cycle to precipitate the KClO4 salt before again being centrifuged. The supernatant was then analyzed by HPLC as for the Caco-2 permeability studies, and the half-life of the compounds calculated according to the method of Vig et al..

[3] = Caco-2 monolayer apical to basolateral transport; format: in vitro ADME; conditions: human, 2 mM prodrug, mean ± RSD, read-out: Overall Papp
Description: Prodrugs that generated robust trans-stimulated efflux in oocytes were further in a Caco-2 monolayer assay to investigate further the extent and rate of trans-epithelial transport. […] Apical to basolateral transport of 2 mM pro-drug, applied to the apical side, was monitored by high performance liquid chromatography (HPLC) after 1 h. The presence or absence of excess Gly-Gln allowed us to determine both the overall and PepT1 specific permeability (Table 2). […] The PepT1 mediated Papp values are of similar magnitude to known PepT1 (pro)drug substrates.
as §1

[4] = Oral pharmacokinetics in male Sprague-Dawley rats; conditions: for Cmax / Tmax: rat plasma
Description: (§2) Animals were given free access to food and water throughout the study and maintained under a 12-h light/dark cycle with temperature and humidity controlled according to Home Office regulations.
(§3) Blood samples (230 μL) were taken from the carotid artery at the following time points and placed in heparinized tubes: predose, 0.25, 0.5, 1, 2, 4, 8 and 24 h post dose. After the final time point the animals were sacrificed by an overdose of anaesthetic.
(§4) Blood samples were centrifuged to obtain the plasma, which was transferred to a separate labelled container. Aliquots from the individual time points for the three animals were analyzed singly. 80 μL of plasma was diluted with 20 μL of 1:1 ACN:water, then 800 μL chilled ACN was added, samples briefly vortex mixed and the centrifuged at 13000 rpm for 5 min at 4 °C. 500 μL of the resultant supernatant was further diluted with 500 μL water.
(§5) 20 μL sample was analyzed by LC-MS/MS using a C18 5 μm Gemini UHPLC column running a gradient of 90% 0.04% acetic acid in water to 90% ACN over 3 min at a flow rate of 0.5 mL min^−1. MS data was acquired under multiple reaction monitoring conditions using a turbo spray ion source. The concentration in the plasma was determined by comparison to standard curves of the administered compound prepared in blank plasma matrices and treated in an identical manner to the samples.

[5] = molecular target: T1, rabbit PepT1; experiment: Trans-stimulation efflux of [3H]-D-Phe-L-Gln from rabbit PepT1 expressing oocytes; format: cell-based; conditions: 10 mM prodrug, [3H]-D-Phe-L-Gln efflux, compared to GlyGln
Description: Trans-stimulation assays were performed using radiolabelled [^3H]-D-Phe-L-Gln efflux from rabbit PepT1 expressing oocytes in the presence of 10 mM pro-drug. As controls, 10 mM Gly-L-Gln (a standard PepT1 substrate) or buffer lacking a substrate (negative control) were used.
as §1

[6] = molecular target: T1, rabbit PepT1; set-up: method as in PMID 19262922; conditions: 10 mM prodrug, [3H]-D-Phe-L-Gln efflux; previously reported data ref 16; cited from earlier work
[7] = male, Sprague-Dawley, rat, in vivo, po, 6 mg/kg
Description: as §2, §3, §4, §5

[8] = in vivo; conditions: male, Sprague-Dawley, rat, po, 6 mg/kg
Description: as §2, §3, §4, §5

[9] = rats; cited from earlier work
[10] = humans; cited from earlier work
[11] = pH 5.5

melting point: 210 to 212 °C
Molecule: CC(=O)N[C@H]1[C@H]([C@H](O)[C@H](O)COC(=O)C[C@H](NC(=S)[C@H](C)N)C(=O)O)OC(C(=O)O)=C[C@@H]1NC(=N)N (as salt: salt) (hydrate or solvate) [Compound 9, (4S,5R,6R)-5-acetamido-6-((1R,2R)-3-((S)-3-((S)-2-aminopropanethioamido)-3-carboxypropanoyloxy)-1,2-dihydroxypropyl)-4-guanidino-5,6-dihydro-4H-pyran-2-carboxylic acid]

Molecule: C[C@H](N)C(=S)N[C@@H](COC(=O)C[C@@H](CN)c1ccc(Cl)cc1)C(=O)O (as salt: salt) (hydrate or solvate) [Compound 10, (S)-3-((R)-4-amino-3-(4-chlorophenyl)butanoyloxy)-2-((S)-2-aminopropanethioamido)propanoic acid]
melting point: 112 to 115 °C

melting point: 140 to 143 °C
Molecule: COc1c(C)c2c(c(O)c1C/C=C(\C)CCC(=O)OC[C@H](NC(=S)[C@H](C)N)C(=O)O)C(=O)OC2 (as salt: salt) (hydrate or solvate) [Compound 11, (S)-2-((S)-2-aminopropanethioamido)-3-((E)-6-(4-hydroxy-6-methoxy-7-methyl-3-oxo-1,3-dihydroisobenzofuran-5-yl)-4-methylhex-4-enoyloxy)propanoic acid]

melting point: 118 to 121 °C
Molecule: CC(C)NC[C@@H](COc1ccc(CC(N)=O)cc1)OC(=O)C[C@H](NC(=S)[C@H](C)N)C(=O)O (as salt: salt) [Compound 8, (S)-4-((S)-3-(4-(2-amino-2-oxoethyl)phenoxy)-1-(isopropylamino)propan-2-yloxy)-2-((S)-2-aminopropanethioamido)-4-oxobutanoic acid]

Ki [1]: 260 ± 30 µM
half-life at 0.5 mM [2]: > 17 h
Papp at 1 h, 2 mM [3]: 3.7 ± 0.2 ×10⁻⁶ cm/s
AUC ([4]; male, Sprague-Dawley, rat, plasma, po, 10 mg/kg): 500 ± 100 ng·h/mL
Cmax ([4]; male, Sprague-Dawley, rat, plasma, po, 10 mg/kg, CMax, 1 at 10 mg kg^−1 oral, assayed compound intact 1): 200 ± 40 ng/mL
Tmax ([4]; male, Sprague-Dawley, rat, plasma, po, 10 mg/kg, 1 at 10 mg kg^−1 oral, assayed compound intact 1): 1 h
Trans-stimulated efflux? [5]: Yes
Molecule: CC(C)Cc1ccc([C@@H](C)C(=O)OC[C@H](NC(=S)[C@H](C)N)C(=O)O)cc1 [Compound 1]

Molecule: C[C@H](N)C(=S)N[C@@H](COC(=O)CC1(CN)CCCCC1)C(=O)O [Compound 2, (S)-3-[2-(1-Aminomethyl-cyclohexyl)-acetoxy]-2-((S)-2-amino-thiopropionylamino)-propionic acid]
Ki [1]: 1010 ± 330 µM
Papp at 1 h, 2 mM [3]: 0.6 ± 0.1 ×10⁻⁶ cm/s
Trans-stimulated efflux? [5]: Yes

Ki [1]: 920 ± 190 µM
Rat liver homgenate t1/2 ([2]; 0.5 mM compound): 7.3 h
half-life at 0.5 mM [2]: 7 h
Cmax ([4]; 3 at 7.6 mg kg^−1 oral, assayed compound intact 3): 16300 ± 1800 ng/mL
AUC ([4]; male, Sprague-Dawley, rat, plasma, po, 7.6 mg/kg): 3200 ± 1400 ng·h/mL
Cmax ([4]; male, Sprague-Dawley, rat, plasma, po, 7.6 mg/kg, CMax, 3 at 7.6 mg kg^−1 oral, assayed compound intact 3): 16700 ng/mL
Tmax ([4]; male, Sprague-Dawley, rat, plasma, po, 7.6 mg/kg, 3 at 7.6 mg kg^−1 oral, assayed compound intact 3): 5.2 ± 0.8 h
Trans-stimulated efflux? [5]: Yes
Molecule: CC(C)c1cccc(C(C)C)c1OC(=O)C[C@H](NC(=S)[C@H](C)N)C(=O)O [Compound 3, (S)-2-((S)-2-Amino-thiopropionylamino)-succinic acid 4-(2,6-diisopropyl-phenyl) ester]

Molecule: COc1ccc2cc(CC/C(C)=N/OCCOC(=O)C[C@H](NC(=S)[C@H](C)N)C(=O)O)ccc2c1 [Compound 6]
Trans-stimulated efflux? [6]: Yes

Ki [1]: 440 ± 150 µM
Trans-stimulated efflux? [5]: No
Molecule: CC(C)NC[C@@H](COc1ccc(CC(N)=O)cc1)OC(=O)C[C@H](NC(=S)[C@H](C)N)C(=O)O [Compound 8, (S)-4-((S)-3-(4-(2-amino-2-oxoethyl)phenoxy)-1-(isopropylamino)propan-2-yloxy)-2-((S)-2-aminopropanethioamido)-4-oxobutanoic acid]

Ki [1]: 130 ± 20 µM
Trans-stimulated efflux? [5]: No
Molecule: CC(=O)N[C@H]1[C@H]([C@H](O)[C@H](O)COC(=O)C[C@H](NC(=S)[C@H](C)N)C(=O)O)OC(C(=O)O)=C[C@@H]1NC(=N)N [Compound 9, (4S,5R,6R)-5-acetamido-6-((1R,2R)-3-((S)-3-((S)-2-aminopropanethioamido)-3-carboxypropanoyloxy)-1,2-dihydroxypropyl)-4-guanidino-5,6-dihydro-4H-pyran-2-carboxylic acid]

Molecule: C[C@H](N)C(=S)N[C@@H](COC(=O)C[C@@H](CN)c1ccc(Cl)cc1)C(=O)O [Compound 10, (S)-3-((R)-4-amino-3-(4-chlorophenyl)butanoyloxy)-2-((S)-2-aminopropanethioamido)propanoic acid]
Ki [1]: 1870 ± 260 µM
Trans-stimulated efflux? [5]: No

Ki [1]: 210 ± 80 µM
Trans-stimulated efflux? [5]: only weakly triggered efflux and Weak
Molecule: COc1c(C)c2c(c(O)c1C/C=C(\C)CCC(=O)OC[C@H](NC(=S)[C@H](C)N)C(=O)O)C(=O)OC2 [Compound 11, (S)-2-((S)-2-aminopropanethioamido)-3-((E)-6-(4-hydroxy-6-methoxy-7-methyl-3-oxo-1,3-dihydroisobenzofuran-5-yl)-4-methylhex-4-enoyloxy)propanoic acid]

Ki [1]: 320 ± 80 µM
Papp at 1 h, 2 mM [3]: 3 ± 0.5 ×10⁻⁶ cm/s
Trans-stimulated efflux? [5]: No
Molecule: C[C@H](NC(=O)[C@@H](N)Cc1ccccc1)C(N)=S [FSA, PheΨ[CS-NH]-Ala, reference compound]

Tmax [7]: 0.7 ± 0.3 h
AUC [8]: 14000 ± 1800 ng·h/mL
Cmax ([8]; CMax): 5700 ± 600 ng/mL
Tmax ([8]; tmax): 1 h
Molecule: CC(C)Cc1ccc(C(C)C(=O)O)cc1 (stereo not shown) [Ibuprofen]

half-life at 0.5 mM [2]: 0.15 h
Molecule: C[C@H](NC(=O)[C@@H](N)Cc1c[nH]c2ccccc12)C(=O)O [L-Trp-L-Ala, reference compound] (H-Trp-Ala-OH)

Molecule: CC(C)c1cccc(C(C)C)c1O [propofol]
Oral bioavailability [9]: no oral bioavailability
Oral bioavailability [10]: no oral bioavailability

Molecule: (S)-2-((S)-2-Amino-thiopropionylamino)-succinic acid 4-(2-{2-[2-(2-acetoxy-benzoyloxy)-ethoxy]-ethoxy}-ethyl) ester [Compound 4]
Stability in assay buffer [11]: limited stability

Stability in assay buffer [11]: limited stability
Molecule: (S)-2-((S)-2-Amino-thiopropionylamino)-succinic acid 4-[2-(2-amino-6-oxo-1,6-dihydro-purin-9-ylmethoxy)-ethyl] ester [Compound 5]
